For one experiment, the target named is Cruzain (Trypanosoma cruzi, UniProt P25779). The experiment in a line: Cysteine protease inhibition, progress curve method, cruzain. The format is biochemical. The settings on record: 4 uM Ac-Lys-Glu-Lys-Leu-Arg-AMC, 100 mM Na acetate pH 5.5, 5 mM cysteine; read-out: Cruzain Ki. In short, it runs like this: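 Buffer was 100 mM sodium acetate pH 5.5 with 5 mM cysteine and 2% DMSO, at ambient temperature; reactions started with enzyme, and AMC formation was followed for 20–30 min. Substrates: Leishmania and Schistosoma, 10 uM Cbz-Phe-Arg-AMC; falcipain, 10 uM Cbz-Leu-Arg-AMC; cruzain, 4 uM Ac-Lys-Glu-Lys-Leu-Arg-AMC. Linear curves gave Ki,app; curved ones gave kobs/[I].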
Chain of Cruzain (P25779 123-337): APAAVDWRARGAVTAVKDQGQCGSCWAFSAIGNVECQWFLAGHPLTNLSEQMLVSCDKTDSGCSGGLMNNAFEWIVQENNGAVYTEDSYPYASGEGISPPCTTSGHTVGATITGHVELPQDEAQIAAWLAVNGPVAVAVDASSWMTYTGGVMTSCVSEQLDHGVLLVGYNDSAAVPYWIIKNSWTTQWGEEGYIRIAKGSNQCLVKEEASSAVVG

Another experiment concerns the target Rhodazain (Trypanosoma brucei rhodesiense, UniProt Q95PM0). The experiment in a line: Cysteine protease inhibition, progress curve method, rhodazain. It is filed as biochemical, Trypanosoma brucei rhodesiensi. The conditions noted are these: 10 uM Cbz-Leu-Arg-AMC, 100 mM Na acetate pH 5.5, 5 mM cysteine. As to the method: Standard assay conditions for the determination of kinetic constants used 10 uM fluorogenic peptide substrate, Cbz-Phe-Arg-AMC for the cysteine proteases from Leishmania spp and Schistosoma Mansoni, Cbz-Leu-Arg-AMC for the cysteine proteases from Plasmodium falciparum and Trypanosoma brucei rhodesiensi, and Ac-Lys-Glu-Lys-Leu-Arg-AMC (4 uM final substrate concentration) for the cysteine protease from Trypoanosoma cruzi, and were determined in 100 mM Na acetate at pH 5.5 containing 5 mM cysteine. Stock substrate solutions were prepared at concentrations of […] in DMSO with 10 uM (4 uM for Ac-Lys-Glu-Lys-Leu-Arg-AMC) final substrate concentration in the assays. The final DMSO concentration was 2% and the final volume was 100 uL. All assays were conducted at ambient temperature. Product progress curves were generated over 20 to 30 minutes following formation of AMC product.
Potential inhibitors were evaluated using the progress curve method. Assays were carried out in the presence of variable concentrations of test compound. Reactions were initiated by addition of enzyme to buffered solutions of inhibitor and substrate. Data analysis was conducted according to one of two procedures depending on the appearance of the progress curves in the presence of inhibitors. For those compounds whose progress curves were linear, apparent inhibition constants (Ki,app) were calculated according to equation 1 (Brandt et al., Biochemitsry, 1989, 28, 140):
v=VmA/[Ka(1+I/Ki,app)+A] (1)
Where v is the velocity of the reaction with maximal velocity Vm, A is the concentration of substrate with Michaelis constant of Ka, and I is the concentration of inhibitor.
[AMC]=vsst+(v0−vss)[1−exp (−kobst)]/kobs (2)
Where [AMC] is the concentration of product formed over time t, v0 is the initial reaction velocity and vss is the final steady state rate. Values for kobs were then analyzed as a linear function of inhibitor concentration to generate an apparent second order rate constant (kobs/inhibitor concentration or kobs/[I]) describing the time-dependent inhibition. A complete discussion of this kinetic treatment has been fully described (Morrison et al., Adv. Enzymol. Relat. Areas Mol. Biol., 1988, 61, 201).
Exemplary inhibition data for the compounds used in the present method collected in accordance with the above-described procedure are listed in Table I.

Like-named read-outs stand apart in the source and are kept apart here.

From patent US20030044399A1, “Method of treatment” (SmithKline Beecham Corporation, priority 1998, published 2003) come the findings set out here.

Chain of Rhodazain (Q95PM0 entry or part of it): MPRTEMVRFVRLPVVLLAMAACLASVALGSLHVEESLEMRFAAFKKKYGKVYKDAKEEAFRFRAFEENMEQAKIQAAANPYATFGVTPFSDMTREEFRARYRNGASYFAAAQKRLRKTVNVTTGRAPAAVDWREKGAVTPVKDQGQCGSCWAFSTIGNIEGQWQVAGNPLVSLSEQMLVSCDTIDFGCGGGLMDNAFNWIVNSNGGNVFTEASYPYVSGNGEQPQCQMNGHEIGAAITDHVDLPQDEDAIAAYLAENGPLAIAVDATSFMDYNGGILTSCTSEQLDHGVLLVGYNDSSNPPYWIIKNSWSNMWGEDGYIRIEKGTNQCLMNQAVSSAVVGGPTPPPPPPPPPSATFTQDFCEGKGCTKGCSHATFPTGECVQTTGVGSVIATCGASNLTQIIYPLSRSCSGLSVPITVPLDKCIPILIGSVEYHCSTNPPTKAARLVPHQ

Turning to `Cc1ccc2oc(C(=O)N[C@@H](CC(C)C)C(=O)NC3CCCN(S(=O)(=O)c4cccc[n+]4[O-])CC3=O)c(C)c2c1` (stereo partly drawn) [Example 201, 3,5-Dimethyl-benzofuran-2-carboxylic acid {(S)-3-methyl-1-[3-oxo-1-(1-oxy-pyridine-2-sulfonyl)-azepan-4-ylcarbamoyl]-butyl}-amide], the Ki at Cruzain is 10 nM; on Rhodazain (read-out: Rhodazain Ki), 7.6 nM.
On to `CC(C)C[C@H](NC(=O)c1cnc2ccccc2n1)C(=O)NC1CCCN(C(=O)Nc2ccccc2F)CC1=O` (stereo partly drawn) [Example 217, Quinoxaline-2-carboxylic acid {(S)-1-[1-(2-fluoro-phenylcarbamol)-3-oxo-azepan-4-ylcarbamoyl]-3-methyl-butyl}-amide], for which the Ki was 11 nM on Cruzain and 6.7 nM at Rhodazain (Rhodazain Ki (nM)).
In the same order, the values of `CC(C)C[C@@H](NC(=O)c1ccc2ccccc2n1)C(=O)N[C@@H]1CCCN(S(=O)(=O)c2ccccn2)CC1=O` (single isomer, unassigned) [Example 151] are 7.1 nM and 6.1 nM.
In the same order, the values of `Cc1c(C(=O)NC(CC(C)C)C(=O)N[C@H]2CCCN(S(=O)(=O)c3cccc[n+]3[O-])CC2=O)oc2cc(F)ccc12` (single isomer, unassigned) [Example 196] are 11 nM and 6.8 nM.
The like results for `CC(C)C[C@@H](NC(=O)c1ccc(Br)o1)C(=O)N[C@@H]1CCCN(S(=O)(=O)c2cccc[n+]2[O-])CC1=O` [Example 50, 5-Bromo-furan-2-carboxylic acid {(S)-3-methyl-1-[3-oxo-1-(1-oxy-pyridine-2-sulfonyl)-azepan-4-ylcarbamoyl]-butyl}amide] were, in that order, 10 nM and 2.1 nM.
For the compound `Cc1ccc2oc(C(=O)NC(CC(C)C)C(=O)N[C@H]3CCN(S(=O)(=O)c4cccc[n+]4[O-])CCC3=O)c(C)c2c1` (single isomer, unassigned) [Example 206], the results for the inhibition constant Ki on Cruzain and on Rhodazain (Rhodazain Ki (nM)) were 6.6 nM and 4.9 nM, respectively.
In the same order, the values of `COc1cccc2cc(C(=O)N[C@@H](CC(C)C)C(=O)N[C@H]3CCCN(S(=O)(=O)c4nccs4)CC3=O)oc12` [Example 125] are 4 nM and 4.1 nM.
In the same order, the values of `COc1ccc2oc(C(=O)N[C@H](CC(C)C)C(=O)N[C@@H]3CCCN(S(=O)(=O)c4cccc[n+]4[O-])CC3=O)cc2c1` (single isomer, unassigned) [Example 63] are 9.8 nM and 5.9 nM.
In the same order, the values of `Cc1c(C(=O)N[C@H](CC(C)C)C(=O)N[C@@H]2CCCN(S(=O)(=O)c3cccc[n+]3[O-])CC2=O)oc2ccccc12` (single isomer, unassigned) [Example 99] are 7.8 nM and 5.1 nM.
On to `Cc1cccnc1S(=O)(=O)N1CCC[C@@H](NC(=O)[C@@H](CC(C)C)NC(=O)c2oc3ccccc3c2C)C(=O)C1` (stereo in doubt) [Example 161, 3-Methyl-benzofuran-2-carboxylic acid {(S)-3-methyl-1-[1-(3-methyl-pyridine-2-sulfonyl)-3-oxo-azepan-4-ylcarbamoyl]-butyl}amide], for which the figures for the inhibition constant (Ki) on Cruzain and on Rhodazain (Rhodazain Ki (nM)) were 7.8 nM and 6.4 nM, respectively.
The like results for `Cc1ccc(C(=O)NC(CC(C)C)C(=O)N[C@@H]2CCCN(S(=O)(=O)c3cccc[n+]3[O-])CC2=O)s1` (stereo partly drawn) [Example 79, 5-Methyl-thiophene-2-carboxylic acid {(S)-3-methyl-1-[3-oxo-1-(1-oxy-1pyridine-2-sulfonyl)-azepan-4-ylcarbamoyl]-butyl}amide] were, in that order, 16 nM and 8 nM.
In the same order, the values of `Cc1oc(-c2ccccc2)nc1C(=O)N[C@@H](CC(C)C)C(=O)NC1CCCN(S(=O)(=O)c2ccccn2)CC1=O` (stereo partly drawn) [Example 106, 5-Methyl-2-phenyl-oxazole-4-carboxylic acid {(S)-3-methyl-1-[3-oxo-1-(pyridine-2-sulfonyl)-azepan-4-ylcarbamoyl]-butyl}amide] are 16 nM and 5.8 nM.
Turning to `CC(C)C[C@@H](NC(=O)c1cc2cc(OCC[N+]3([O-])CCOCC3)ccc2o1)C(=O)N[C@@H]1CCCN(S(=O)(=O)c2ccccn2)CC1=O` [Example 43, 5-(4-Oxy-morpholino-4-yl-ethoxy)-benzofuran-2-carboxylic acid {(S)-3-methyl-1-[3-oxo-1-(pyridine-2-sulfonyl)-azepan-4-ylcarbamoyl]-butyl}amide], the values for the Ki on Cruzain and at Rhodazain (Rhodazain Ki (nM)) were 3.6 nM and 4.9 nM, respectively.
In the same order, the values of `CCc1c(C(=O)NC(CC(C)C)C(=O)N[C@H]2CCN(S(=O)(=O)c3cccc[n+]3[O-])CCC2=O)oc2ccccc12` (single isomer, unassigned) [Example 207] are 10 nM and 5.4 nM.
In the same order, the values of `CC(C)CC(NC(=O)c1cc2ccccc2n1C)C(=O)NC1CCCN(S(=O)(=O)c2cccs2)CC1=O` [Example 148, 1-Methyl-1-H-indole-2-carboxylic acid-{(S)-3-methyl-1-[3-oxo-1-(thiophene-2-sulfonyl)-azepan-4-ylcarbamoyl]-butyl}-amide] are 8.2 nM and 23 nM.
In the same order, the values of `CC(C)C[C@@H](NC(=O)c1ccc2c(c1)OCO2)C(=O)N[C@@H]1CCCN(S(=O)(=O)c2cccc[n+]2[O-])CC1=O` [Example 55, Benzo[1,3]dioxole-5-carboxylic acid {(S)-3-methyl-1-[3-oxo-1-(1-oxy-pyridine-2-sulfonyl)-azepan-4-ylcarbamoyl]-butyl}amide] are 12 nM and 7.3 nM.
With `Cc1c(C(=O)N[C@@H](CC(C)C)C(=O)NC2CCCN(S(=O)(=O)c3ccccn3)CC2=O)oc2ccccc12` (stereo partly drawn) [Example 70, 3-Methyl-benzofuran-2-carboxylic acid {(S)-3-methyl-1-[3-oxo-1-(pyridine-2-sulfonyl)-azepan-4-ylcarbamoyl]-butyl}amide], the Ki on Cruzain is 6.6 nM; on Rhodazain (Rhodazain Ki (nM)), 5.5 nM.
Consider `CC(C)C[C@@H](NC(=O)c1cc2cc(F)ccc2o1)C(=O)N[C@H]1CCCN(S(=O)(=O)c2cccc[n+]2[O-])CC1=O` [Example 191, 5-Fluoro-benzofuran-2-carboxylic acid {(S)-3-methyl-1-[3-oxo-1-(1-ox-pyridine-2-sulfonyl)-azepan-4-ylcarbamoyl]-butyl}-amide], for which the results for the inhibition constant Ki at Cruzain and on Rhodazain (Rhodazain Ki (nM)) were 12 nM and 8.3 nM, respectively.
In the same order, the values of `CC(C)C[C@@H](NC(=O)c1cc2cc(F)c(F)cc2o1)C(=O)N[C@@H]1CCCN(S(=O)(=O)c2ccccn2)CC1=O` (single isomer, unassigned) [Example 150] are 5.4 nM and 3.7 nM.
In the case of `CC(C)C[C@H](NC(=O)c1cc2ccccc2o1)C(=O)N[C@H]1CCCN(S(=O)(=O)c2nccs2)CC1=O` [Example 130, Benzofuran-2-carboxylic acid {(S)-3-methyl-1-[3-oxo-1-(thiazole-2-sulfonyl)-azepan-4-ylcarbamoyl]-butyl}amide], the inhibitory constant (Ki) turned out to be 2.5 nM on Cruzain and 2.6 nM at Rhodazain (Rhodazain Ki (nM)).
In the same order, the values of `CC(C)C[C@H](NC(=O)c1cc2cc(O)ccc2o1)C(=O)N[C@H]1CCCN(S(=O)(=O)c2cn(C)cn2)CC1=O` [Example 44, 5-Hydroxy-benzofuran-2-carboxylic acid {(S)-3-methyl-1-[1-(1-methyl-1H-imidazole-4-sulfonyl)-3-oxo-azepan-4-ylcarbamoyl]-butyl}amide] are 11 nM and 7.2 nM.
